Measured values from patent publication US6334996B1, “Chelators that predominantely form a single stereoisomeric species upon coordination to a metal center” (Resolution Pharmaceuticals Inc., priority 1997, dated 2002).

Experiments:
[1] = log D of the metal complexes; format: physicochemical; conditions: ^99mTc complex
[2] = humans; cited from earlier work

Compound | logD [1] | excreted at 30 minutes [2]
CN(C)CC(=O)N[C@@H](CO)C(=O)N[C@@H](CS)C(=O)NCC(=O)O [^99mTc complex of dimethylglycine-serine-cysteine-glycine, metal not drawn] | -2.3 | 
CN(C)CC(=O)N[C@H](C(=O)N[C@@H](CS)C(=O)NCC(=O)O)C(C)(C)C [^99mTc complex of dimethylglycine-t-butylglycine-cysteine-glycine, metal not drawn] | -1.3 | 
Tc complex of 2,3-bis(mercaptoacetamide)propanoate [anti isomer of the Tc complex of 2,3-bis(mercaptoacetamide)propanoate (map)] |  | 19%
Tc complex of 2,3-bis(mercaptoacetamide)propanoate [syn isomer of the Tc complex of 2,3-bis(mercaptoacetamide)propanoate (map)] |  | 58%
